Type in all cases: cell-based, Candida auris
Test [1] relates to C. auris AR Bank #385. The test is described as follows: MIC determination by in vitro antifungal assay. The following applies: C. auris AR Bank # 385 (Table 2B). Here is the method:
(§1) The antifungal agent amphotericin B (AmB) was purchased from VWR (Radnor PA, USA). AmB was dissolved in DMSO at a final concentration of 5 mg/mL and was stored at −20° C., protected from light. Candida albicans American Type Culture Collection (ATCC) 10231 (strain A), C. albicans ATCC 64124 (B), and C. albicans ATCC MYA-2876 (C) were obtained from Utah State University. C. albicans ATCC 90819 (D), C. albicans ATCC MYA-2310 (E), C. albicans ATCC MYA-1237 (F), C. albicans ATCC MYA-1003 (G), Candida glabrata ATCC 2001 (H), Candida krusei ATCC 6258 (I), Candida parapsilosis ATCC 22019 (J), Cryptococcus neoformans ATCC MYA-895 (M), Aspergillus terreus ATCC MYA-3633 (N), and Aspergillus flavus ATCC MYA-3631 (0) were obtained from the American Type Culture Collection (ATCC; Manassas, VA, USA). Aspergillus nidulans ATCC 38163 (P) was obtained from University of Kentucky. Clinically derived Aspergillus fumigatus NRRL 163 (Q), A. fumigatus NRRL 5109 (R), and A. fumigatus NRRL 6113 (S) were obtained from Northern Regional Research Laboratory (NRRL). Candida auris 384 (K), C. auris 390 (L), and fungal strains 381-400 (including 10 C. auris (AR Bank #381-390), 3 Candida duobushaemulonii (AR Bank #391, AR Bank #392, and AR Bank #394), 2 Candida haemulonii (AR Bank #393 and AR Bank #395), 1 Kodameae ohmeri (AR Bank #396), 1 C. krusei (AR Bank #397), 1 Candida lusitaniae (AR Bank #398), and 2 Saccharomyces cerevisiae strains (AR Bank #399 and AR Bank #400)) were part of a larger fungal library from the AR Bank maintained by the Centers for Disease Control and Prevention (CDC; Atlanta, GA, USA). Filamentous fungi and yeasts were cultivated at 35° C. in RPMI 1640 medium (with L-glutamine, without sodium bicarbonate, Sigma-Aldrich, St. Louis, MO) buffered to a pH of 7.0 with 0.165 M morpholinepropanesulfonic acid (MOPS) buffer (Sigma-Aldrich). For cytotoxicity assays, HepG2 and the mouse macrophage cell line J774A.1 were obtained from University of Kentucky. The human embryonic kidney cell line, HEK-293, was bought from the ATCC. Mammalian cells were grown in Dulbecco's Modified Eagle's Medium (DMEM) (from VWR) with 10% fetal bovine serum (FBS) (from VWR) and 1% Pen/Strep (from ATCC). Cell lines were cultured at 37° C. with 5% CO2 and passaged by trypsinization with 0.05% trypsin: 0.53 mM EDTA (from Sigma-Aldrich).
(§2) From the actively growing yeast culture, 100 µL were then transferred to 900 μL of RPMI 1640 medium and re-adjusted to achieve OD600 of 0.12 (˜1×10^6 CFU/mL). The cell suspension was further diluted to achieve 1:100 in RPMI 1640 medium.

Test [2] deals with C. auris AR Bank #381. The test is described as follows: MIC determination by in vitro antifungal assay. The following applies: C. auris AR Bank # 381 (Table 2B). The method, then:
as §1, §2

The test system of test [3] is C. auris AR Bank #386. Briefly: MIC determination by in vitro antifungal assay. The following applies: C. auris AR Bank # 386 (Table 2B). The method, then:
as §1, §2

Test [4] relates to C. auris AR Bank #383. Briefly: MIC determination by in vitro antifungal assay. The following applies: C. auris AR Bank # 383 (Table 2B). The method, then: as §1, §2
In test [5] the test system is C. auris AR Bank #388. Briefly: MIC determination by in vitro antifungal assay. The following applies: C. auris AR Bank # 388 (Table 2B). Here is the method:
as §1, §2

Test [6] concerns C. auris AR Bank #387. Briefly: MIC determination by in vitro antifungal assay. The following applies: C. auris AR Bank # 387 (Table 2B). Here is the method: as §1, §2
Test [7] relates to C. auris AR Bank #389. Briefly: MIC determination by in vitro antifungal assay. The following applies: C. auris AR Bank # 389 (Table 2B). Here is the method:
as §1, §2

Test [8] concerns C. auris AR Bank #382. Briefly: MIC determination by in vitro antifungal assay. The following applies: C. auris AR Bank # 382 (Table 2B). Here is the method:
as §1, §2

The subject of test [9] is panel of ten C. auris strains (AR Bank #381-390). Briefly: MIC determination, summary over the C. auris panel. The following applies: Candidozyma auris; against all ten C. auris strains tested (AR Bank #381-390). The method, then:
as §1, §2

The mark [10] stands for this setting: Candidozyma auris, read-out: MIC.

Values after ≈ are worked out from the molar mass of the structure shown. Like-named read-outs stand apart in the source and are kept apart here.

On to `O=C(NNc1cccc(Cl)c1)c1ccc(F)cc1F` [Compound 1b], for which the MIC amounted to 3.9 µg/mL (≈ 13.8 µM) in test [1] (setting [10]); 3.9 µg/mL (≈ 13.8 µM) in test [2] (setting [10]); 7.8 µg/mL (≈ 27.6 µM) in [3] (setting [10]); 15.6 µg/mL (≈ 55.2 µM) in [4] (setting [10]); 3.9 µg/mL (≈ 13.8 µM) in test [5] (setting [10]); 7.8 µg/mL (≈ 27.6 µM) in test [6] (setting [10]). In addition, the MIC in test [7] (setting [10]) and in test [8] (setting [10]) was 3.9 µg/mL (≈ 13.8 µM) in each case.

Turning to `O=C(NNc1cc(Cl)cc(Cl)c1)c1ccc(F)cc1F` [Compound 1j], the MIC in test [1] (setting [10]) was 31.3 µg/mL (≈ 98.7 µM); in test [2] (setting [10]), > 31.3 µg/mL; in test [3] (setting [10]), > 31.3 µg/mL; in test [4] (setting [10]), > 31.3 µg/mL; in test [5] (setting [10]), > 31.3 µg/mL; in test [6] (setting [10]), > 31.3 µg/mL. For the same compound, the MIC was > 31.3 µg/mL in test [7] (setting [10]) and 15.6 µg/mL (≈ 49.2 µM) in test [8] (setting [10]).

As for `COc1cccc(NNC(=O)c2ccc(F)cn2)c1` [Compound 3c], the MIC is 0.49 μg/mL^−1 in test [1]; 0.98 μg/mL^−1 in [2]; 0.98 μg/mL^−1 in test [3]; 0.98 μg/mL^−1 in test [4]; 0.98 μg/mL^−1 in test [5]; 0.98 μg/mL^−1 in [6]. In addition, the MIC in test [7] is on record as 0.98 μg/mL^−1; in test [8] it was 0.49 μg/mL^−1.

Take `O=C(NNc1ccc(F)cc1)c1ccc(F)cn1` [Compound 3d]: the MIC in test [1] was found to be 0.98 μg/mL^−1; in [2], 1.95 μg/mL^−1; in [3], 1.95 μg/mL^−1; in [4] it was 1.95 μg/mL^−1; in [5], 1.95 μg/mL^−1; in test [6], 0.98 μg/mL^−1. Besides, the MIC stood at 1.95 μg/mL^−1 in test [7] and 0.98 μg/mL^−1 in test [8].

With `O=C(NNc1ccc(Cl)cc1)c1ccc(F)cn1` [Compound 3e], the MIC in test [1] is 1.95 μg/mL^−1; in test [2], 7.8 μg/mL^−1; in test [3], 7.8 μg/mL^−1; in test [4], 3.9 μg/mL^−1; in [5], 7.8 μg/mL^−1; in test [6], 7.8 μg/mL^−1. Also, the MIC in [7] and in test [8] was 7.8 μg/mL^−1 throughout.

On to `O=C(NNc1ccc(F)cc1F)c1ccc(F)cn1` [Compound 3g], for which the MIC in test [9] is 0.12 to 7.8 µg/mL (≈ 0.449 to 29.2 µM); in test [1] (setting [10]), 0.49 µg/mL (≈ 1.83 µM); in test [2] (setting [10]) it was 1.95 µg/mL (≈ 7.3 µM); in [3] (setting [10]), 1.95 µg/mL (≈ 7.3 µM); in test [4] (setting [10]) it was 1.95 µg/mL (≈ 7.3 µM); in test [5] (setting [10]), 1.95 µg/mL (≈ 7.3 µM). For the same compound, the MIC in [6] (setting [10]) came out at 0.98 µg/mL (≈ 3.67 µM); in test [7] (setting [10]), 1.95 µg/mL (≈ 7.3 µM); in [8] (setting [10]), 1.95 µg/mL (≈ 7.3 µM).

Turning to `O=C(NNc1ccc(F)cc1)c1ccc(Br)cn1` [Compound 4d], the MIC in test [9] is 0.12 to 7.8 µg/mL (≈ 0.387 to 25.2 µM); in test [1] (setting [10]), 1.95 µg/mL (≈ 6.29 µM); in test [2] (setting [10]), 1.95 µg/mL (≈ 6.29 µM); in [3] (setting [10]), 3.9 µg/mL (≈ 12.6 µM); in test [4] (setting [10]) it was 7.8 µg/mL (≈ 25.2 µM); in test [5] (setting [10]), 1.95 µg/mL (≈ 6.29 µM). Moreover, the MIC turned out to be 3.9 µg/mL (≈ 12.6 µM) in test [6] (setting [10]), 3.9 µg/mL (≈ 12.6 µM) in test [7] (setting [10]) and 1.95 µg/mL (≈ 6.29 µM) in test [8] (setting [10]).

Turning to `O=C(NNc1ccc(F)cc1)c1cccc(F)n1` [Compound 5d], the MIC is 0.06 to 1.95 µg/mL (≈ 0.241 to 7.82 µM) in [9]; 0.49 µg/mL (≈ 1.97 µM) in [1] (setting [10]); 0.98 µg/mL (≈ 3.93 µM) in test [2] (setting [10]); 0.98 µg/mL (≈ 3.93 µM) in test [3] (setting [10]); 1.95 µg/mL (≈ 7.82 µM) in test [4] (setting [10]); 0.49 µg/mL (≈ 1.97 µM) in test [5] (setting [10]). Moreover, the MIC in test [6] (setting [10]) was found to be 0.49 µg/mL (≈ 1.97 µM); in test [7] (setting [10]), 0.98 µg/mL (≈ 3.93 µM); in [8] (setting [10]), 0.98 µg/mL (≈ 3.93 µM).

Values taken from US20240425464A1, “Substituted Monohydrazides as Potent Antifungal Agents” (University of Kentucky Research Foundation, priority 2023, published 2024).
